Tested on: D. immitis GA III (susceptible isolate)
Set-up: species or system Dirofilaria immitis
Conditions: in vivo

Q: For Milbemycin oxime [MBO], which “Number of GA III Worms” value is on record?
A: 0

Q: And the “Percentage of GA III Worms” value (po)?
A: 0%

Source: US20230313318A1, “MICR[…] METHOD OF USE THEREOF” (priority 2022, published 2023)
